“Also recorded” adds a separate entry of the source.
Key:
[1] = test system: injured cartilage explants, PGE2 synthesis; assay: drop tower design model: PGE2 synthesis; assay type: cell-based, bovine; settings: cocktail of cytokines
Text: The device comprises a vertical rail that guides a sliding weight from 0.1 kg to 3 kg directly onto a force transducer which is situated at the bottom of the device. A sphere-shaped 2 mm indenter resting on a specimen is located at the bottom of the vertical rail. The indenter is held by a stop screw. The specimen is rigidly attached to a tissue holder underneath the indenter, to avoid side movements, the specimen is rigidly attached to the tissue holder. In this manner, the force transducer transduces a force indirectly onto the specimen. Adjusting the weight of a mass and height from which the mass drops varies the magnitude of the intended impact. For example, a weight mass (e.g., […]) held by a weight holder can be released from a height of e.g., 36 cm and dropped onto the force transducer. […]
In the first method, bovine or human PBMCs were freshly prepared using Ficoll gradient by Lampire Biological Laboratories, Inc. PBMCs in RPMI w/10% FCS at delivery were spun down at 1500 rpm for twenty minutes and the cell pellet was washed twice with 1×PBS to wash off the residual Ficoll. […] Each conditioned medium was assessed for levels of pro-inflammatory cytokines to ensure their secretion from PBMC. […]
PGE2 was measured with STAT-Prostaglandin E2 EIA ELISA kit (Cayman Biochemicals), as described in Example III above. […]

[2] = test system: chondrocytes; assay type: cell-based
Text: (§1) Calf articular cartilage was obtained from the knee joints of eight to twelve month old animals and was processed within twenty-four hours after sacrifice. After removal of muscle and ligament, the cartilage was kept moist using phosphate buffer solution (PBS) to prevent tissue dehydration, and was aseptically peeled off from subchondral bone with a scalpel, and the cartilage pieces were further minced into smaller pieces (˜0.3-0.5×˜0.2-0.5 cm cubes). […] Chondrocytes were then enzymatically isolated from the tissue by incubation for overnight at 37° C. with gentle agitation in 0.2% collagenase in Dulbecco's modified eagle media (DMEM). After removal of tissue debris by filtration through cell strainer and the residual collagenase by 3× wash in PBS, cells were finally resuspended at a density of 2.5×10^6 cells/ml in chondrocyte medium. A 1 ml aliquot of the cell suspension was dispensed into either a 15 ml Falcon centrifuge tube or a 96 deep-well plate and centrifuged at 2000×g for five minutes. The chondrocyte pellets were incubated at 37° C. in a humidified atmosphere of 5% CO2 for two to three weeks with a medium change every other day.
(§2) As an alternative to using calf articular cartilage, a commercial Alginate Recovered Chondrocytes (ARC) system was also used (Articular Engineering, LLC (Northbrook, Ill.)). Use of the commercial system cut down on labor and time in producing chondrocyte pellet. This system produced cartilaginous tissue in vitro using bovine chondrocytes. The first step consisted of culturing chondrocytes in alginate under conditions optimal for the formation of a cell-associated matrix (CM). The second step allowed these cells with their CM, after recovery, to rapidly form and become integrated into a solid mass of cartilage on a porous insert within two weeks. This tissue is rich in cells surrounded by a cell-associated matrix that is degraded rapidly when the cells are exposed to IL-1. ARC tissues in 3 mm punches at delivery were first dispensed into a 96 deep-well plate, one punch per well, for compound treatment. The subsequent procedures were the same as those used for the chondrocyte pellets.
(§3) Chondrocyte pellets were washed once with 1 ml of Chondrocyte Stimulation Medium and equilibrated in the same medium at room temperature for fifteen to thirty minutes. Compounds were dissolved in H2O, Ethanol or dimethyl sulfoxide (DMSO) (10^−2 M) according to suppliers' instructions and further diluted with Chondrocyte Stimulation Medium to the required concentrations. DMSO concentrations in the culture media should not exceed 1%; this concentration of DMSO has no effect on cartilage proteoglycan metabolism in response to cytokines.
(§4) The pellets were first treated with compounds at desired concentrations at 37° C. for one hour and then incubated for three to five days in the absence or presence of 10 ng/ml of IL-1β. At the end of the incubation, media and pellets were harvested and frozen for further analysis. Pellets were also fixed as needed in 4% (w/v) paraformaldehyde in PBS for histology analysis.
The LDH activity was determined colorimetrically in an enzymatic test based on the conversion of lactic acid to pyruvate in the presence of chromagenic substrate tetrazolium salt INT that was reduced to formazan.

[3] = test system: IL-1β-stimulated PGE2 synthesis, bovine chondrocyte pellets / ARC tissues; assay: chondrocyte pellet culture model: PGE2; assay type: cell-based
Text: as §1, §2, §3, §4
(§5) Prostaglandin E2 (PGE2) was measured with a STAT-Prostaglandin E2 EIA ELISA kit (Cayman Biochemicals). This assay is based on the competition between PGE2 from 50 μl samples and a PGE2-alkaline phosphatase conjugate for a limited amount of PGE2 monoclonal antibody in a reaction volume of 150 μl at room temperature for one hour. The antibody-PGE2 complex bound to a goat polyclonal anti-mouse IgG that had been previously attached to the well. After washing to remove any unbound reagents, para-nitrophenyl phosphate (pNPP) was added to the well. The product of this enzymatic reaction absorbs strongly at 412 nm. Because of the large range in response to IL-1β and other cytokines, PGE2 values were converted to log scale prior to doing t-tests.

[4] = test system: IL-1β-stimulated GAG release, bovine chondrocyte pellets / ARC tissues; assay: chondrocyte pellet culture model: GAG degradation; assay type: cell-based; settings: ARC, 7.5 ng/ml IL-1, five days; JNJ 7706621 at 5 μM
Text: as §1, §2, §3
[…] At the end of the incubation, media and pellets were harvested and frozen for further analysis. Pellets were also fixed as needed in 4% (w/v) paraformaldehyde in PBS for histology analysis.
(§6) Glycosaminoglycan (GAG) levels in the culture media were determined by measuring the amount of polyanionic material reacting with 1,9-dimethylmethylene blue (DME) as detected by absorbance at 525 nm, using shark chondroitin sulfate as a standard. The DME blue dye-binding solution was prepared by dissolving 16 mg of DME blue in a solution containing 0.304% glycine, 0.23% sodium chloride (NaCl), 9.5 mM hydrochloric acid (HCl), pH=3.0 with absorbance at 525 equal to 0.31. Proteoglycans and proteoglycan metabolites in chondrocyte pellet were released by digesting the pellet with 125 μg/ml of papain in 0.1 M PBS, pH 6.0, 5 mM cysteine, 5 mM ethylene-diamine-tetra-acetic acid disodium salt (Na2EDTA) at 50° C. for overnight. Results are reported as either micrograms of GAG per milliliter or percent of total GAG released into culture medium.

[5] = test system: IL-1β-stimulated NO production, bovine chondrocyte pellets / ARC tissues; assay: chondrocyte pellet culture model: total nitrite/nitrate (NO); assay type: cell-based; settings: ARC, 7.5 ng/ml IL-1, five days; JNJ 7706621 at 5 μM
Text: as §1, §2, §3, §4
Nitrate/Nitrite levels were measured using the Griess reaction (Green L. C. et al., “Analysis of Nitrate, Nitrite, and [15N]nitrate in Biological Fluids,” Anal. Biochem. 126: 131-138 (1982)) with aNitrate/Nitrite Colorimetric Assay Kit (Cayman Chemicals), the contents of which are incorporated herein by reference. The assay involved a simple two-step process. The first step involved conversion of nitrate in 50 μl of culture medium to nitrite utilizing nitrate reductase in a reaction volume of 100 μl at room temperature for two hours. The second step involved the addition of 50 μl of both Griess Reagent 1 and 2, which converted nitrite into a deep purple azo compound in ten minutes. Photometric measurement of the absorbance at 540 or 550 nm due to this azo chromophore accurately determined nitrite concentration. […]

[6] = test system: human cancer cell lines; assay: cell proliferation in culture; assay type: cell-based; settings: in 9 cell lines, read-out: inhibits cell proliferation in culture IC50
[7] = test system: human tumor xenograft models; assay: human tumor xenograft models; settings: in vivo
[8] = test system: cytokine-stimulated GAG release, human ARC tissues; assay: human ARC tissues: GAG degradation; assay type: cell-based
Procedure: as §6
(§7) ® infliximab is a monoclonal antibody against human TNFα. To test whether […]® could modulate cytokine-stimulated responses in chondrocytes, human chondrocyte pellets were first tested for an optimal concentration for cytokine stimulation. Human ARC (i.e., ARCs generated using human chondrocytes) tissues were treated with various concentrations of either TNF or IL-1 for four and five days. The culture media was collected for measurement of GAG content as described above. Other assays were performed as described above. Cytokine dosage at 5 ng/ml and treatment for five days gave a reasonable treatment window, yet was not too challenging for compound efficacy (FIG. 4).
(§8) Human ARC tissues were then treated with various concentrations of […]® in the presence or absence of either 10 ng/ml of TNFα or 5 ng/ml of IL-1β for four or five days.
(§9) The efficacy of a monoclonal antibody (mAb) against human IL-6 in inhibition of proteoglycan degradation, NO production and PGE2 synthesis on human ARC tissues stimulated with IL-6 was also tested. Human ARC tissue were treated with 12.5, 25 and 250 ng/ml of IL-6 mAb diluted into chondrocyte stimulation medium. […]

[9] = test system: cytokine-stimulated PGE2 synthesis, human ARC tissues; assay: human ARC tissues: PGE2 synthesis; assay type: cell-based; settings: for PGE2 Inhibition: TNFα stimulated responses
Procedure: as §5, §7, §8, §9

[10] = test system: cytokine-stimulated NO production, human ARC tissues; assay: human ARC tissues: NO production; assay type: cell-based
Procedure: Nitrate/Nitrite levels were measured using the Griess reaction (Green L. C. et al., “Analysis of Nitrate, Nitrite, and [15N]nitrate in Biological Fluids,” Anal. Biochem. 126: 131-138 (1982)) with aNitrate/Nitrite Colorimetric Assay Kit (Cayman Chemicals), the contents of which are incorporated herein by reference. The assay involved a simple two-step process. The first step involved conversion of nitrate in 50 μl of culture medium to nitrite utilizing nitrate reductase in a reaction volume of 100 μl at room temperature for two hours. The second step involved the addition of 50 μl of both Griess Reagent 1 and 2, which converted nitrite into a deep purple azo compound in ten minutes. Photometric measurement of the absorbance at 540 or 550 nm due to this azo chromophore accurately determined nitrite concentration. This assay kit cannot be used for RPMI (Roswell Park Memorial Institute) derived tissue culture medium due to interference with the colorimetric reaction.
® infliximab is a monoclonal antibody against human TNFα. To test whether […]® could modulate cytokine-stimulated responses in chondrocytes, human chondrocyte pellets were first tested for an optimal concentration for cytokine stimulation. Human ARC (i.e., ARCs generated using human chondrocytes) tissues were treated with various concentrations of either TNF or IL-1 for four and five days. […]

[11] = at 1 ng/ml, TNFα stimulated responses

Compound: CNC(=O)[C@H](Cc1ccccc1)NC(=O)[C@H](CC(C)C)[C@H](CSc1cccs1)C(=O)NO [Batimastat]
- PGE2 synthesis, inhibition [1]: did not inhibit; also recorded: No effect

Compound: Nc1nc(Nc2ccc(S(N)(=O)=O)cc2)nn1C(=O)c1c(F)cccc1F [JNJ 7706621, 4-[5-Amino-1-(2,6-difluoro-benzoyl)-1H-[1,2,4]triazol-3-ylamino]-benzenesulfonamide]
- cytotoxicity to chondrocytes (LDH, words) [2]: little toxicity
- PGE2 synthesis ([3]; ARC, 7.5 ng/ml IL-1, five days, JNJ 7706621 at 5 μM): little effect
- PGE2 Inhibition ([3]; Pellet Assay): No effect
- GAG Release [4]: completely blocked
- NO production [5]: completely blocked
- IC50 [6]: 337 ± 123 nM
- antitumor activity in human tumor xenograft models [7]: single agent antitumor activity

Compound: REMICADE®: monoclonal antibody against human TNFα
- IL-1β stimulated responses (PGE2, NO, GAG; words) ([8]; 5 ng/ml IL-1β): little effect
- TNFα-induced GAG release ([8]; 10 ng/ml TNFα): strongly inhibited
- GAG Release, inhibition [8, 11]: 100% at 1 ng/ml
- TNFα-induced PGE2 synthesis ([9]; 10 ng/ml TNFα): strongly inhibited
- PGE2 Inhibition ([9]; at 1 ng/ml): 50% at 1 ng/ml
- PGE2 Inhibition ([9]; at 10 ng/ml): 100% at
- TNFα-induced NO production ([10]; 10 ng/ml TNFα): strongly inhibited
- NO Inhibition [10, 11]: 100% at
